Results as given in patent publication US11401253B2, “16-methyl-oxacyclohexadecan-2-one and 16-methyl-azacyclohexadecan-2-one derivatives as antimicrobial agents” (THE UNIVERSITY OF MONTANA, priority 2017, dated 2022).
In brackets after ≈: the same amount, converted by molar mass. Several values for one entry are separate records, joined by “and”; a condition that tells them apart may be missing. Identical values can stand only once. Entries after “also recorded” stand apart in the source; their conditions may differ.

Tests used:
[1] = test system: Staphylococcus aureus (13709); test: Antibiotic testing (MIC), S. aureus 13709; assay type: cell-based; details: growth inhibition ≥90% relative to drug-free controls, read-out: minimum inhibitory concentration, Staphylococcus aureus (13709)
[2] = test system: Streptococcus pyogenes; test: Antibiotic testing (MIC), Streptococcus pyogenes; assay type: cell-based; details: growth inhibition ≥90%, read-out: minimum inhibitory concentration, Streptococcus pyogenes
[3] = test system: Candida glabrata; test: Antibiotic testing (MIC), Candida glabrata; assay type: cell-based; details: Nakaseomyces glabratus; growth inhibition ≥90%; read-out: minimum inhibitory concentration, Candida glabrata
[4] = test system: Bacillus subtilis; test: Antibiotic testing (MIC), Bacillus subtilis; assay type: cell-based; details: growth inhibition ≥90%, read-out: minimum inhibitory concentration, Bacillus subtilis
[5] = test system: C. albicans; test: Antibiotic testing (MIC), C. albicans; assay type: cell-based; details: Candida albicans; growth inhibition ≥90%; read-out: minimum inhibitory concentration, C. albicans
[6] = test system: B. anthracis; test: microbe, parasite or virus in culture; assay type: cell-based; details: Bacillus anthracis, read-out: minimum inhibitory concentration, B. anthracis
[7] = test system: Enterococcus faecalis; test: Antibiotic testing (MIC), Enterococcus faecalis; assay type: cell-based; details: growth inhibition ≥90%, read-out: minimum inhibitory concentration, Enterococcus faecalis
[8] = test system: S. aureus CAIRD116; test: Antibiotic testing, methicillin-resistant S. aureus CAIRD116; assay type: cell-based; details: Staphylococcus aureus, CAIRD116; methicillin-resistant strain
From the text: (§1) Both the methyl ester and the diacetate derivatives of BPL 76 slightly less but still very strong activity against the same four MRSA strains (Table 11). The activities of compounds BPL 76 and BPL 81 were compared to several known antibiotics against three methicillin-resistant strains of S. aureus [FIG. 6, comparative data provided by Hartford Hospital, Center for Anti-Infective Research and Development (CAIRD)].

[9] = test system: S. aureus CAIRD142; test: Antibiotic testing, methicillin-resistant S. aureus CAIRD142; assay type: cell-based; details: Staphylococcus aureus, CAIRD142; methicillin-resistant strain
From the text: as §1

[10] = test system: S. aureus CAIRD148; test: Antibiotic testing, methicillin-resistant S. aureus CAIRD148; assay type: cell-based; details: Staphylococcus aureus, CAIRD148; methicillin-resistant strain
From the text: as §1

[11] = test system: K. pneumoniae (10031); test: Antibiotic testing (MIC), gram negative K. pneumoniae; assay type: cell-based; details: for MIC: Klebsiella pneumoniae, read-out: MIC, K. pneumoniae (10031)
Protocol: (§2) None of this collection of compounds were active against Gram-negative bacteria
(§3) Additionally, BPL 76 and derivatives were tested against a panel of gram negative bacteria including K. pneumonia, P. aeruginosa and E. coli (Table 12).

[12] = test system: P. aeruginosa; test: Antibiotic testing (MIC), gram negative P. aeruginosa; assay type: cell-based; details: Pseudomonas aeruginosa; read-out: MIC, P. aeruginosa
Protocol: as §2, §3

[13] = test system: E. coli (25922); test: Antibiotic testing (MIC), gram negative E. coli; assay type: cell-based; details: for MIC: Escherichia coli, read-out: MIC, E. coli (25922)
Protocol: as §2, §3

[14] = test system: non-replicating persistence Mycobacterium tuberculosis (NRP-TB); test: Low oxygen recovery assay (LORA), non-replicating persistence Mtb; assay type: cell-based; details: non-replicating persistence, hypoxic conditions; for MIC: Mycobacterium tuberculosis, read-out: MIC, LORA
[15] = test system: Vero cell; test: Cytotoxicity (MTS), Vero cells; assay type: cell-based, monkey; details: Primates, 72 hours exposure
[16] = test system: HepG2; test: Cytotoxicity (MTS), HepG2 cells; assay type: cell-based; details: Homo sapiens, 72 hours exposure
[17] = test system: J774; test: Cytotoxicity (MTS), J774 cells; assay type: cell-based, murine; details: Mus musculus, 72 hours exposure
[18] = test system: primary human peripheral blood mononuclear cells (PBMCs); test: Cell death in primary PBMCs; assay type: cell-based; details: highest concentration tested, 500 μg/ml
Protocol: Additionally the BPL76 compound was tested against primary human peripheral blood mononuclear cells (PBMCs) and induced very little cell death, with only up to 60% death induced at the highest concentration tested, 500 μg/ml (not shown).

[19] = test system: GFP synthesis; test: Cell-free translation assay with GFP reporter; assay type: biochemical; details: 50 μM and 250 μM, 37° C., readings for 2 hr
Protocol: Further assessment of the effect of BPL76 on protein translation was done using a cell-free translation assay. The plasmid pY71-sfGFP^55 (5 ng) was translated in the PUREexpress in vitro protein synthesis system (New England Biolabs). The final concentrations of erythromycin, josamycin and tylosin in the translation reactions were 50 μM. The reactions were incubated at 37° C. and fluorescence readings (excitation: 488 nm, emission, 520 nm) were taken every 20 min for 2 hr.

[20] = test system: Gram-positive bacteria; test: Antibiotic panel, Gram-positive bacteria; assay type: cell-based; details: 1 μM-1 mM/well
From the text: as §2

[21] = Bactericidal activity (therapeutic index statement); assay type: cell-based
[22] = test system: Vero, HepG2 and J774 cells; test: Cytotoxicity, mammalian cell lines (summary statement); assay type: cell-based
Protocol: Cytotoxicity for Vero, HepG2 and J774 cells were determined following 72 hours exposure to BPL76 and analogs. Cell viability was assessed on the basis of cellular conversion of MTS dye into a soluble formazan product using the Promega CellTiter 96 Aqueous Non-Radioactive Cell Proliferation Assay. After incubation at 37° C. for 72 h, medium was removed and monolayers were washed twice with 100 μl of warm Hanks' balanced salt solution (HBSS). One hundred microliters of warm medium and 20 μl of freshly made MTS-PMS [3-(4,5-dimethylthiazol-2-yl)-5-(3-carboxymethoxyphenyl)-2-(4-sulfophenyl)-2H-tetrazolium and […]](100:20) (Promega) were added to each well, plates were incubated for 3 h, and absorbance was determined at 490 nm. Viability was assessed on the basis of cellular conversion of MTS dye into a soluble formazan product using the Promega CellTiter 96 Aqueous Non-Radioactive Cell Proliferation Assay as described in Falzari K, Zhu Z, Pan D, Liu H, Hongmanee P, et al. (2005). In vitro and in vivo activities of macrolide derivatives against Mycobacterium tuberculosis were determined as described in Ekins, S, Reynolds, R C, Franzblau, S G, et al. Enhancing Hit Identification in Mycobacterium tuberculosis Drug Discovery Using Validated Dual-Event Bayesian Models PLOS ONE (2013) 8:5, e63240. […]

[23] = test system: Mycobacterium tuberculosis
[24] = test system: Mycobacterium tuberculosis; test: microbe, parasite or virus in culture; details: read-out: MIC, MABA
[25] = test system: S. aureus (NE277); test: Antibiotic testing, methicillin-resistant S. aureus NE277; assay type: cell-based; details: Staphylococcus aureus, read-out: antibiotic testing data (MIC), S. aureus (NE277)
From the text: as §1

[26] = target: T1, MMP-3 (Homo sapiens, UniProt P08254); test: MMP-3 enzyme inhibition assay; assay type: biochemical
T1 construct: purchased BioMol
Protocol: The two fungi were also co-cultured under controlled conditions. P. fuscum was grown in pure culture in potato dextrose broth (10×400 mL). After 24 h, an agar cube (8 mm^3) impregnated with P. camembertii/clavigerum mycelium was added to each flask and the resulting co-culture was shaken for 6 more days (200 rpm, room temperature). At time of harvest, methanol (50 mL/flask) was added, the mycelia were removed by gravity filtration and the broth was extracted with chloroform (3×2 L). The chloroform was removed in vacuo to yield 663 mg of crude extract. The crude extract was verified to be active in the MMP-3, caspase-1 and caspase-3 enzyme inhibition assays. Enzyme inhibitory activity was determined using specific BioMol enzyme inhibition assay kits for drug discovery as described in Stierle, A; Stierle, D. The Berkeleylactones, Antibiotic Macrolides from Fungal Coculture. J. Nat. Prod. 80, 4, 1150-1160.

T1 sequence (P08254 100-477): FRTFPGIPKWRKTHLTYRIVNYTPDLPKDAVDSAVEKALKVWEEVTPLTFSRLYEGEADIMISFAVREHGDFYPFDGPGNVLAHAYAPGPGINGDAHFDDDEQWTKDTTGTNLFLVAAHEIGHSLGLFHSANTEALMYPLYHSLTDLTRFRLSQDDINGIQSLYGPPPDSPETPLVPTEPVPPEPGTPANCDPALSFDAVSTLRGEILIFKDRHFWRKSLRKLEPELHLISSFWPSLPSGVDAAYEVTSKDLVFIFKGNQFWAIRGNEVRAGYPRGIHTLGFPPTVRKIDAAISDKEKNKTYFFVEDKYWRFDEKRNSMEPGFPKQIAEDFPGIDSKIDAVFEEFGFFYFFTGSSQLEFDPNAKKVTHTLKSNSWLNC

Row | Compound | MIC [1] | MIC [2] | MIC [3] | MIC [4] | MIC [5] | MIC [6] | MIC [7] | MIC [8] | MIC [9] | MIC [10] | MIC [11] | MIC [12] | MIC [13] | MIC [14] | IC50 [15] | IC50 [16] | IC50 [17] | MIC [24] | also measured
1 | C[C@@H]1CCCCCCCCC[C@H](O)C(=O)C[C@@H](SC[C@@H](O)C(=O)O)C(=O)O1 [BPL 76, (S)-2-hydroxy-3-(((3R,6S,16R)-6-hydroxy-16-methyl-2,5-dioxooxacyclohexadecan-3-yl)thio)propanoic acid] | 1 mg/L (≈ 2.47 µM) | 3 mg/L (≈ 7.42 µM) | 6 mg/L (≈ 14.8 µM) | 13 mg/L (≈ 32.1 µM) | 26 mg/L (≈ 64.3 µM) | 3 mg/L (≈ 7.42 µM) | 13 mg/L (≈ 32.1 µM) | 1 mg/L (≈ 2.47 µM) | 2 mg/L (≈ 4.94 µM) | 1 mg/L (≈ 2.47 µM) | 1000 µM and 405 µg/mL | > 1000 µM | 1000 µM and 405 µg/mL | 24 mg/L (≈ 59.3 µM) | 61.5 mg/L (≈ 152 µM) | 64.8 mg/L (≈ 160 µM) | 16.8 mg/L (≈ 41.5 µM) | 25 mg/L (≈ 61.8 µM) | activity against K. pneumonia (in words) [11]: weakly active; activity against E. coli (in words) [13]: weakly active; MIC, LORA [14]: ~24 mg/L (≈ 59.3 µM); cell death induced in PBMCs [18]: up to 60%; effect on GFP synthesis and corresponding fluorescence [19]: no effect at either concentration; also recorded: lack of inhibition; activity against Gram-positive bacteria [20]: strongest activity; efficacious concentration to induce bactericidal activity [21]: ~1 µg/mL; mammalian toxicity concentration [22]: ~60 µg/mL; MIC, MABA [23]: ~25 mg/L (≈ 61.8 µM); fold less active against Mtb than against MRSA [23]: 25 fold; times less potent than rifampicin against Mtb [23]: 100 ×
2 | C[C@@H]1CCCCCCCCC[C@H](OC(=O)CCC(=O)O)C(=O)C[C@@H](SC[C@@H](O)C(=O)O)C(=O)O1 [BPL 88, 4-(((3R,6S,16R)-3-(((S)-2-carboxy-2-hydroxyethyl)thio)-16-methyl-2,5-dioxooxacyclohexadecan-6-yl)oxy)-4-oxobutanoic acid] | 4 mg/L (≈ 7.93 µM) | 119 mg/L (≈ 236 µM) | 31 mg/L (≈ 61.4 µM) | 31 mg/L (≈ 61.4 µM) | > 119 mg/L | 8 mg/L (≈ 15.9 µM) | 31 mg/L (≈ 61.4 µM) | 15 mg/L (≈ 29.7 µM) | 15 mg/L (≈ 29.7 µM) | 8 mg/L (≈ 15.9 µM) | > 250 µM | > 250 µM | > 250 µM | 46 mg/L (≈ 91.2 µM) | > 100 mg/L | > 100 mg/L | 42.5 mg/L (≈ 84.3 µM) | > 100 mg/L | MIC [25]: 8 mg/L (≈ 15.9 µM); MMP-3 inhibition [26]: weaker inhibitors
